{"source": "patent US7491827B2", "about": "“Aryl sulfonamides useful as inhibitors of chemokine receptor activity” (Millennium Pharmaceuticals, Inc., priority 2003, dated 2009)", "data": [{"molecular_target": "T1, cloned human CCR8 receptor stably expressed in L1.2 cells (Homo sapiens, UniProt P51685)", "T1 construct": "expressed in transfected cells", "T1 sequence (P51685 whole entry)": "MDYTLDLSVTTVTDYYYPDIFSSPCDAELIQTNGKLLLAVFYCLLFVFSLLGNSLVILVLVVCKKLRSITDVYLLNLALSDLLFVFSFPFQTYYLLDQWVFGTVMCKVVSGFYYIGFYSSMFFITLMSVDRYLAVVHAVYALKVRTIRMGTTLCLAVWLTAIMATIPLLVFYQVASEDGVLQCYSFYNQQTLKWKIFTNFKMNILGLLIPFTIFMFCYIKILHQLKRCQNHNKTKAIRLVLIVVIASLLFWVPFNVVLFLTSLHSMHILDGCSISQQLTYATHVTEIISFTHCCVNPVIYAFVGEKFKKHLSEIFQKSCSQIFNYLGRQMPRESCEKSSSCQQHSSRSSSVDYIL", "experiment": "whole cell binding screen: inhibition of biotinylated human I309 binding to CCR8 (FMAT 8100 HTS)", "conditions": "L1.2/hCCR8 cells, biotinylated human I-309, 10 point concentration response starting at 10 μM; read-out: Ki of compounds to inhibit I-309 binding to CCR8", "procedure,_shortened": "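Ten-point dilutions, top 10 μM final, were tested for displacing biotin-I309 from hCCR8-transfected L1.2 cells in HEPES-buffered HBSS with BSA and sodium azide, mixing 0.5 h before FMAT 8100 detection. Signals converted to percent inhibition against untreated wells and a 100 nM excess unlabeled I309 control.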", "units": {"Ki": "µM"}, "values": [{"smiles": "Cc1ccccc1C(=O)Nc1ccc(S(=O)(=O)NC2(C)CCNCC2)c2ccccc12", "note": "[Compound J-49]", "Ki": "< 0.5"}, {"smiles": "COc1ccc(NS(=O)(=O)c2ccc(NC(=O)c3ccccc3C)c3ccccc23)cc1", "note": "[Compound B-11, N-[4-(4-Methoxy-phenylsulfamoyl)-naphthalen-1-yl]-2-methyl-benzamide]", "Ki": "< 0.5"}, {"smiles": "CCOC(=O)[C@H]1CN(C(=O)OCC)CC[C@@H]1NS(=O)(=O)c1ccc(NC(=O)c2ccccc2C)c2ccccc12", "note": "(racemic) [Compound C-79, (±)-(trans)-4-[4-(2-Methyl-benzoylamino)-naphthalene-1-sulfonylamino]-piperidine-1,3-dicarboxylic acid diethyl ester]", "Ki": "< 30"}, {"smiles": "CCCC(=O)N1CCC(NS(=O)(=O)c2cccc3c(C(=O)Nc4cccc(C)c4C)cccc23)CC1", "note": "[Compound H-37, 5-(1-Butyryl-piperidin-4-ylsulfamoyl)-naphthalene-1-carboxylic acid (2,3-dimethyl-phenyl)-amide]", "Ki": "< 0.5"}, {"smiles": "Cc1ccccc1C(=O)Nc1ccc(S(=O)(=O)N[C@@H]2CCN(C(=O)[C@@H]3CCCN3)C[C@H]2C)c2ccccc12", "note": "[Compound J-1, (3R,4R)-2-(S)-Methyl-N-{4-[3-methyl-1-(pyrrolidine-2-carbonyl)-piperidin-4-ylsulfamoyl]-naphthalen-1-yl}-benzamide]", "Ki": "< 0.5"}, {"smiles": "CCNC(=O)N1CCCC(NS(=O)(=O)c2ccc(NC(=O)c3ccccc3C)c3ccccc23)C1", "note": "(racemic) [Compound C-113, (±)-3-[4-(2-Methyl-benzoylangno)-naphthalene-1-sulfonylamino]-piperidine-1-carboxylic acid ethylamide]", "Ki": "< 0.5"}, {"smiles": "O=C(Nc1cccc2c(S(=O)(=O)NC3CCCCC3)cccc12)c1ccccc1", "note": "[Compound H-5, N-(5-Cyclohexylsulfamoyl-naphthalen-1-yl)-benzamide]", "Ki": "< 0.5"}, {"smiles": "Cc1ccccc1C(=O)Nc1ccc(S(=O)(=O)N[C@H]2CCN(C(=O)OC(C)C)C[C@@H]2C)c2ccccc12", "note": "(racemic) [Compound C-18, (±)-trans-3-methyl-4-[4-(2-methyl-benzoylalino)-naphthalene-1-sulfonylamino]-piperidine-1-carboxylic acid isopropyl ester]", "Ki": "< 0.5"}, {"smiles": "CN(C)C(=O)N1CCC(NS(=O)(=O)c2ccc(C(=O)NC3CCOCC3)c3ccccc23)CC1", "note": "[Compound F-21, 4-[4-(Tetrahydro-pyran-4-ylcarbamoyl)-naphthalene-1-sulfonylamino]-piperidine-1-carboxylic acid dimethylamide]", "Ki": "< 0.5"}, {"smiles": "CCCC(=O)N1CCC(NS(=O)(=O)c2ccc(NC(=O)c3ccccc3Cl)c3ccccc23)CC1", "note": "[Compound C-105, N-[4-(1-Butyryl-piperidin-4-ylsulfamoyl)-naphthalen-1-yl]-2-chloro-benzamide]", "Ki": "< 0.5"}, {"smiles": "CCOC(=O)N1CCC(NS(=O)(=O)c2cccc3c(C(=O)Nc4cccnc4)cccc23)CC1", "note": "[Compound H-35, 4-[5-(Pyridin-3-ylcarbamoyl)-naphthalene-1-sulfonylamino]-piperidine-1-carboxylic acid ethyl ester]", "Ki": "< 1"}, {"smiles": "Cc1ccccc1C(=O)Nc1ccc(S(=O)(=O)NC2CCN(Cc3ccccc3)CC2(C)C)c2ccccc12", "note": "(racemic) [Compound A-24, (±)-N-[4-(1-Benzyl-3,3-dimethyl-piperidin-4-ylsulfamoyl)-naphthalen-1-yl]-2-methyl-benzamide]", "Ki": "< 0.5"}, {"smiles": "O=C(NC1CCOCC1)c1ccc(S(=O)(=O)NC2CCNCC2)c2ccccc12", "note": "[Compound F-18, 4-(Piperidin-4-ylsulfamoyl)-naphthalene-1-carboxylic acid (tetrahydro-pyran-4-yl)-amide]", "Ki": "< 30"}, {"smiles": "CCCC(=O)N1CCC(NS(=O)(=O)c2ccc(C(=O)NC3CCCCC3)c3ccccc23)CC1", "note": "[Compound F-7, 4-(1-Butyryl-piperidin-4-ylsulfamoyl)-naphthalene-1-carboxylic acid cyclohexylainde]", "Ki": "< 0.5"}, {"smiles": "Cc1ccccc1C(=O)Nc1ccc(S(=O)(=O)NC2CCCC2)c2c1CCCC2", "note": "[Compound E-26, N-(4-Cyclopentylsulfamoyl-5,6,7,8-tetrahydro-naphthalen-1-yl)-2-methyl-benzamide]", "Ki": "< 1"}, {"smiles": "CC(C)(C)OC(=O)N1CCC(NS(=O)(=O)c2ccc(C(=O)Nc3ccccc3Cl)c3ccccc23)CC1", "note": "[Compound F-14, 4-[4-(2-Chloro-phenylcarbamoyl)-naphthalene-1-sulfonylamino]-piperidine-1-carboxylic acid tert-butyl ester]", "Ki": "< 1"}, {"smiles": "CC(C)(C)OC(=O)N1CCC(NS(=O)(=O)c2ccc(NC(=O)c3ccncc3)c3ccccc23)CC1", "note": "[Compound B-22, 4-{4-[(Pyridine-4-carbonyl)-amino]-naphthalene-1-sulfonylamino}-piperidine-1-carboxylic acid tert-butyl ester]", "Ki": "< 30"}, {"smiles": "Cc1ccccc1C(=O)Nc1ccc(S(=O)(=O)NC2CCN(c3ncccn3)CC2)c2ccccc12", "note": "[Compound C-57, 2-Methyl-N-[4-(1-pyrimidin-2-yl-piperidin-4-ylsulfamoyl)-naphthalen-1-yl]-benzamide]", "Ki": "< 0.5"}, {"smiles": "CCCC(=O)N1CC[C@H](NS(=O)(=O)c2ccc(N)c3ccccc23)[C@H](C)C1", "note": "(racemic) [Compound D-1, (±)-(cis)-4-amino-naphthalene-1-sulfonic acid (1-butyryl-3-methyl-piperidin-4-yl)-amide]", "Ki": "< 30"}, {"smiles": "CCOC(=O)[C@@H]1CN(Cc2ccccc2)CC[C@H]1NS(=O)(=O)c1ccc(NC(=O)c2ccccc2C)c2ccccc12", "note": "(racemic) [Compound A-48, (±)-(trans)-1-Benzyl-4-[4-(2-methyl-benzoylamino)-naphthalene-1-sulfonylamino]-piperidine-3-carboxylic acid ethyl ester]", "Ki": "< 30"}, {"smiles": "CCCC(=O)N1CCC(NS(=O)(=O)c2ccc(C(=O)Nc3ccccc3Cl)c3ccccc23)CC1", "note": "[Compound F-22, 4-(1-Butyryl-piperidin-4-ylsulfamoyl)-naphthalene-1-carboxylic acid (2-chloro-phenyl)-amide]", "Ki": "< 0.5"}, {"smiles": "CCOC(=O)N1CC[C@H](NS(=O)(=O)c2ccc(NC(=O)c3ccccc3C)c3ccccc23)[C@H](C)C1", "note": "(racemic) [Compound C-136, (±)-cis-3-Methyl-4-[4-(2-methyl-benzoylamino)-naphthalene-1-sulfonylamino]-piperidine-1-carboxylic acid ethyl ester]", "Ki": "< 0.5"}, {"smiles": "CCOC(=O)N1CCC(NS(=O)(=O)c2cccc3c(CNCc4ccc(Cl)cc4)cccc23)CC1", "note": "[Compound H-45, 4-{5-[(4-Chloro-benzylamino)-methyl]-naphthalene-1-sulfonylamino}-piperidine-1-carboxylic acid ethyl ester]", "Ki": "< 0.5"}, {"smiles": "Cc1ccccc1C(=O)Nc1ccc(S(=O)(=O)NC2CCN(C(=O)CN(C)C)CC2)c2c1CCCC2", "note": "[Compound E-17, N-{4-[1-(2-Dimethylandno-acetl)-piperidin-4-ylsulfamoyl]-5,6,7,8-tetrahydro-naphthalen-1-yl}-2-methyl-benzamide]", "Ki": "< 0.5"}, {"smiles": "Cc1ccccc1C(=O)Nc1ccc(S(=O)(=O)N[C@H]2CCN(Cc3ccccc3)C[C@H]2C)c2c1CCC2", "note": "(racemic) [Compound H-74, (±)-cis-N-[7-(1-Benzyl-3-methyl-piperidin-4-ylsulfamoyl)-indan-4-yl]-2-methyl-benzamide]", "Ki": "< 1"}]}]}
